Measured values taken from US9220746B2, “Compounds and methods for treating bone disorders and controlling weight” (The University of North Carolina at Chapel Hill, priority 2009, dated 2015).
Where no end group is shown, it is not given here.

Experiments:
[1] = system: adherent macrophages; assay: Osteoclast differentiation, tartrate resistant acid phosphatase staining; format: cell-based, mouse; settings: osteoclast differentiation
Source text: The method for osteoclast differentiation is as follows: Balb/c mice in which the IGFBP-2 gene had been deleted (see V. DeMambro et al, Endocrinology, 149(5): 2051-2061 (2007)) were anesthetized and sacrificed using cervical dislocation. The femurs from each mouse were dissected free of soft tissue and the bone marrow aspirated by needle puncture. Cells were removed sterile and resuspended in DMEM with 10% fetal calf serum. The cells were centrifuged at 700×g and the cell pellet resuspended in medium and plated in 24 well plates at a concentration of 5000 cells/cm^2. The plates that are used are low adherence plates that have no additives to facilitate cell adherence. Under these conditions macrophages will adhere while other cells will not. The media is supplemented with mCSF 20 ng/ml. After 3 days the cells are removed from the plate and the adherent macrophages are exposed to fresh media containing 10% FBS and mCSF. This is repeated again after 3 days and then after an additional 3 days cells are trypsinized and replated in fresh plates at 6×10^4 cells/cm. At this time RANK ligand, 50 ng/ml, is added, although in some experiments concentrations as low as 10 ng/ml were utilized. Medium is changed at 3 and 6 days and on day 7 cells are stained for tartrate resistant acid phosphatase, a marker of osteoclast differentiation. IGFBP-2 was added at concentrations between 50 ng/ml and 500 mcg/ml. The peptide was added at 20 or 200 ng/ml.
For tartrate resistant acid phosphatase staining, a 1% solution is prepared and incubated with the cells for 30 min at room temperature. Cultures are then washed and cell number determined by manual counting.

[2] = system: cells derived from bone marrow aspirates or calvaria; assay: Osteoblast differentiation, alkaline phosphatase and von kossa stain; format: cell-based, mouse
Experimental: For measurement of osteoblast differentiation, the cells are also derived from the same bone marrow aspirates. However in some experiments they were derived from calvaria obtained from newborn animals. Cells are plated in 6 well plates at […] in alpha MEM with 10% fetal bovine serum. Media was changed on day 1 and 3. At day 3 the cells received differentiation medium, which is alphaMEM containing 10% fetal calf serum, 8 mM glycerol phosphate and 50 ug/ml ascorbic acid. Media subsequently is changed every 2 days until termination of the experiment, generally at 18 days. In some experiments fetal calf serum concentration was lowered to either 5% or 2%. IGFBP-2 200 ng/ml was added to some cultures or the IGFBP-2 peptide at concentrations between 2 ng/ml and 2 mcg/ml. To determine osteoblast differentiation, the cells were fixed with 4% paraformaldehyde and then stained for alkaline phosphatase. The cells were then counterstained with von kossa stain to detect mineralization.

[3] = system: IGFBP-2−/− mice; assay: In vivo rescue of the bone phenotype in IGFBP-2−/− mice (micro CT); parameters: species or system mouse
Experimental: IGFBP-2−/− mice have reduced bone mineral density, reduced cortical and trabecular thickness and reduced bone turnover, both formation and resorption. To determine if the 13 amino acid peptide was active systemically, a pegylated preparation was prepared in order to extend halflife. This preparation was then injected into the mice. Mice between the ages of 16 and 20 weeks were utilized. These mice are known to have a major bone phenotype. The peptide was injected at a dose of 50 mcg of peptide plus conjugate, that is the total molecular weight of PEG plus the peptide, which is approximately 23,000 molecular weight was injected intraperitoneally five days per week for three weeks. Six mice were injected in each group. The major measure of bone density is the bone volume over total volume as calculated by micro CT analysis. This measures the amount of total bone within a given space. Control animals receive PBS injections.

[4] = system: Igfbp2−/− COBs and BMSCs; assay: In vitro osteoblastogenesis of calvarial osteoblasts and bone marrow stromal cells (ALP, Alizarin Red staining); format: cell-based, mouse; settings: 2 μg/ml, osteogenic media
Experimental: FIG. 1. The heparin-binding domain of IGFBP2 enhances osteoblastogenesis in vitro. a. Von Kossa staining was performed using tibia from 8 weeks old Igfbp2^+/+ and Igfbp2^−/− male mouse. b. Calvarial osteoblasts (COBs) were harvested from day 7 old male Igfbp2^+/+ and Igfbp2^−/− male mouse, and treated with osteogenic media in the presence of 2.5% FCS. At day 7, alkaline phosphatase (ALP) staining was performed. c and d. COBs and Bone marrow stromal cells (BMSCs) from Igfbp2^−/− mouse were treated with osteogenic media with pegylated heparin-binding domain peptide (PEG-HBD) in the presence of 10% FCS. ALP staining (day 7) and Alizarin Red staining (day 14) were performed (c). RNA was isolated at day 14 from BMSCs and expression of ALP, osteocalcin (OC) and Runx2 was analyzed by real-time PCR. Figures shown represent at least 3 independent experiments (n=3). Statistical difference was analyzed by student's t test. *; p<0.05.
FIG. 7. […] Igfbp2^−/− calvarial osteoblasts (COBs) were cultured with osteogenic media with PBS, control peptide (2 μg/ml) or heparin binding domain peptide (HBD-peptide) (2 μg/ml). Osteoblastogenesis was evaluated by Alizarin Red staining.
Neonatal calvarial osteoblasts were collected from 7-10 day old mice as previously described^53. Briefly, calvariae were digested 5 times with collagenase P and Trypsin. Cells released from digests 2 through 5 were collected as primary calvarial osteoblasts, and maintained in DMEM supplemented with 10% FCS and non-essential amino acids. Osteoblastogenesis of primary calvarial osteoblasts was carried out by treating cells with 4 mM β-glycerophosphate and 50 μg/ml ascorbic acid in αMEM. Bone marrow stromal cells (BMSCs) were harvested from femurs and tibias of 8 weeks old mice as described previously^10. Osteoblastogenesis of BMSCs was induced by the treatment with osteogenic media consisting of αMEM containing 10% FCS, 8 mM β-glycerophosphate, and 50 μg/ml ascorbic acid.

[5] = system: metacarpals; assay: Metacarpal culture ex vivo (calcein incorporated area, length, width); format: cell-based, mouse; settings: 10 days, IGFBP2 200 ng/ml, peptides 2 μg/ml, vs PBS; for calcein incorporated area of metacarpals: IGF-1 20 ng/ml
Experimental: FIG. 2. The heparin binding domain of IGFBP2 enhances periosteal expansion of metacarpals ex vivo. Metacarpals were collected from day 1 male mouse, and treated with osteogenic media with IGFBP2 (200 ng/ml) or the heparin-binding domain peptide (HBD-peptide) (2 μg/ml) in the presence or absence of IGF-1 (20 ng/ml) for 10 days. Bones were labeled with calcein (500 ng/ml) and calcein incorporated area was visualized (a) and longitudinal length of calcein incorporated area was quantified (b). Alcian blue and Von Kossa double staining was performed (c) and length and width of metacarpals were quantified (d). Statistical difference was analyzed by ANOVA followed by Bonferroni post-hoc test. Figures shown represent at least 3 independent experiments. Values are expressed as the mean±SEM (n=3-4). ^a; <0.05 vs PBS, ^b; <0.01 vs PBS, ^c; <0.001 vs PBS, ^d; <0.01 vs HBD, ^e; <0.05 vs IGF-I, ^f; <0.05 vs HBD.
Metacarpals were isolated from Igfbp2^−/− mice at 1-day old and incubated in DMEM containing 0.5% BSA, 50 μg/ml ascorbic acid and 1 mM β-glycerol phosphate for 10 days^54. Stimulants were added to culture media from day 1. At day 10, metacarpals were incubated in media containing calcein (500 ng/ml) for 2 hours for staining of calcium deposition, and images were obtained. Then, bones were fixed with 4% PFA, embedded in paraffin, and processed for Alcian blue and von Kossa double staining.

[6] = system: PTEN; assay: Western blot analysis of PTEN expression; format: cell-based, mouse; settings: primary calvarial osteoblasts, overnight treatment
Experimental: FIG. 5. The heparin-binding domain of IGFBP2 suppresses PTEN expression. a and b, Igfbp2^−/− calvarial osteoblasts (COBs) were isolated, and treated with PBS, IGFBP-2 or pegylated heparin-binding domain peptide (PEG-HBD) in MEMα containing 0.1% BSA overnight. Whole cell lysate was collected and expression of PTEN and α-actin was analyzed by Western blot analysis. Expression levels of PTEN were quantified by normalizing to the expression levels of α-actin. c and d. COBs pre-incubated with PBS, IGFBP-2 or PEG-HBD overnight were treated with IGF-I (100 ng/ml) for 15 minutes. Whole cell lysate was collected and expression of pSer473-Akt and Akt was analyzed by Western blot analysis. Expression levels of pSer473-Akt were quantified by normalizing to the expression levels of Akt. Figures shown represent at least 3 independent experiments. Values are expressed as the mean±SEM (n=3-4). Statistical difference was analyzed by Student's t-test. *; <0.001, **; <0.01, ^†; <0.05.
FIG. 9. […] Igfbp2^+/+ calvarial osteoblasts were treated with PBS, control peptide, or heparin-binding domain peptide (HBD-peptide) overnight, and whole cell lysate was collected. PTEN expression was analyzed using western blot analysis (a), and quantitative analysis was performed (b). Values were expressed as the mean±SEM (n=3). Statistical significance was analyzed by ANOVA followed by Bonferroni post-hoc test. ^a; p<0.01 vs. PBS, ^b; p<0.01 vs. control peptide.
To prepare whole cell lysates, cells were solubilized in RIPA buffer^55. For cytosolic fraction, cells were solubilized with hypotonic buffer containing protease and phosphatase inhibitors (10 mM Tris, 0.2 mM MgCl2, pH 7.4) and kept on ice for 10 min. Cell lysates were mixed with sucrose buffer (final concentration; 25 mM Sucrose, 0.1 mM EDTA) and centrifuged at 20,000×g for 1 hour. Supernatant was used as cytosolic fraction. To prepare the membrane fraction, cells were solubilized with PBS containing protease and phosphatase inhibitors. The lysates were frozen at −80° C. for 1 h and thawed at room temperature. After three cycles, they were centrifuged at 13,000×g for 25 min. The pellet was suspended with membrane protein isolation buffer (20 mM Tris-HCl; 150 mM NaCl; 1 mM EDTA; 1 mM EGTA; and 1% Triton X-100, pH 7.5) containing protease and phosphatase inhibitors. Protein concentration was assessed by BCA protein assay kit (Thermo Scientific) and equal amounts of sample were separated by SDS-PAGE and transferred electrophoretically to nitrocellulose membranes. Membranes were blocked in 5% BSA in Tris-buffered saline. […]

[7] = system: β-catenin; assay: Western blot analysis of β-catenin (cytosolic accumulation, pSer552); format: cell-based, mouse
Experimental: FIG. 6. The heparin-binding domain of IGFBP-2 stimulates cytosolic accumulation and Ser552 phosphorylation of β-catenin by IGF-I. a, MC3T3-E1 cells were serum-starved over-night and treated with IGF-I at the indicated concentration for 6 hours. Expression of β-catenin and α-actin was analyzed by Western blot analysis with membrane and cytosolic fraction. b, Igfbp2^−/− calvarial osteoblasts (COBs) were serum-starved over-night with PBS or pegylated heparin-binding domain peptide (PEG-HBD) and then treated with IGF-I (100 ng/ml) for 6 hours. Expression of β-catenin was analyzed by Western blot analysis with cytosolic fraction and quantified by normalizing to α-actin (n=3). c, MC3T3-E1 cells were serum-starved over-night and treated with IGF-I (100 ng/ml) for 15 min. Expression of pSer552-β-catenin, β-catenin, pSer473-Akt, Akt and α-actin was analyzed by Western blot analysis with whole cell lysates. d, Igfbp2^−/− COBs were serum-starved over-night with PBS or PEG-HBD and then treated with IGF-I (100 ng/ml) for 15 min. Expression of pSer552-β-catenin was analyzed by Western blot analysis with whole cell lysates and quantified by normalizing to β-catenin (n=3). Figures shown represent at least 3 independent experiments. Values are expressed as the mean±SEM. Statistical difference was analyzed by Student's t-test. *; <0.001, **; <0.01, ^†; <0.05. […]

[8] = 50 mcg i.p. five days per week for three weeks

Which “biologic activity compared to the nonpegylated peptide” value [1] does the source give for “pegylated 13 amino acid peptide: peptide of SEQ ID NO: 1 N-terminally pegylated with methoxyPEG propinaldehyde molecular weight 20 kDa, 1 PEG per peptide ({methoxyPEG 20 kDa}-KHHLGLEEPKKLR)” here?
The value was “equal biologic activity”.

What about the “biologic activity compared to the nonpegylated peptide” value [2] of the same substance?
The value was “equal biologic activity”.

And the “PTEN in bones (biochemical analysis)” value [3, 8]?
Its value is “downregulated”.

What about the cortical thickness [3, 8] of the same substance?
Its cortical thickness is “substantially increased”.

What about the “rescue of bone phenotype relative to normal” value [3, 8] of the same substance?
Its value is no more than 70%.

What about the “BV/TV (bone volume over total volume)” value ([3]; 50 mcg peptide plus conjugate i.p. five days per week for three weeks, normal 0.22, gene deletion 0.12) of the same substance?
Its value is 0.18.

Which “mineralization of Igfbp2−/− COBs (Alizarin Red) compared to PBS” value [4] does the source give for “AALSLEEPAALAP (Synthetic control peptide) [control peptide for HBD-peptide, reference compound]” here?
The value was “did not enhance mineralization”.

What about the “calcein incorporated area of metacarpals” value [5] of the same substance?
The value was “no effect”.

What about the “width (and length) of metacarpals” value [5] of the same substance?
Its value is “comparable to the metacarpals treated with PBS”.

And the PTEN expression [6]?
The PTEN expression was “no effect on PTEN expression”.

For “RKGFYKRKQCKPSRGKRK (IGFBP-5 heparin binding domain-containing peptide sequence) [HBD-BP5, reference compound]”, which “mineralization of Igfbp2−/− COBs (Alizarin Red) compared to PBS” value [4] is on record?
The value was “did not show any enhancement of mineralization”.

And the “calcein incorporated area of metacarpals” value [5]?
The value was “did not have any effect”.

What about the “width (and length) of metacarpals” value [5] of the same substance?
The value was “did not have any effect”.

What does the source list for IGF-I: insulin-like growth factor-I?
calcein incorporated area of metacarpals [5]: stimulated expansion of calcein incorporated area; Ser552 phosphorylation of β-catenin ([7]; IGF-I 100 ng/ml 15 min, MC3T3-E1 cells (IGF-I alone) or Igfbp2−/− COBs pre-treated with PEG-HBD): stimulated β-catenin phosphorylation on Ser552; cytosolic accumulation of β-catenin ([7]; IGF-I 6 hours, MC3T3-E1 cells (IGF-I alone) or Igfbp2−/− COBs pre-treated with PEG-HBD vs PBS): enhanced cytosolic accumulation of β-catenin
